Like-named read-outs stand apart in the source and are kept apart here.
Columns and labels:
U87-MG [1] = assay: Cytotoxicity assay (cell count at end of treatment), U87-MG; assay type: cell-based, human; details: for cytotoxic effect, Observed TTFields + AZD1152 / cytotoxic effect, AZD1152: 72 h; for cytotoxic effect, Observed TTFields + AZD1152: percentage of control; for cytotoxic effect, Expected: expected value for the combination; for cytotoxic effect, AZD1152: number of cells as percentage of control
Description: (§1) The effects of the combined treatment of TTFields and the Aurora B kinase inhibitor AZD1152 was tested in 3 different glioma cell lines: U87-MG, U87-MG^shp53 and U-251. TTFields ([…], 200 kHz) were applied for 72 hours using the Inovitro system. AZD1152 was added to the media in concentrations of up to 100 nmol/L. Cell counts, cell cycle, and clonogenic potential were determined at the end of treatment. Formation of multinuclear cells was determined using microscopic images of cells stained with crystal violet.
(§2) The effects of the combined treatment of TTFields and AZD1152 was tested using the following human glioma cell lines: U87-MG (ATCC), U-251 (ECACC) and U87-mG^shp53 (provided by Dr. Achim Temme). All cells were grown in a humidified incubator supplied with 5% CO2. Cells were maintained in EMEM, supplemented with 10% FBS, 2 mmol/L glutamine, Pen-Strep solution (100 units/ml Penicillin and 0.1 mg/ml Streptomycin), 1 mmol/L sodium pyruvate and 1% NEAA. U87-MG^shp53 cells were maintained under selection with […] geneticin. AZD1152 was obtained from Sigma, Israel.
(§3) TTFields (1.6 V/cm RMS, 200 kHz) were applied for 72 hours using the Inovitro system. At the end of treatment, inhibition of tumor cell growth was analyzed quantitatively based on cell count. Clonogenic survival of U87-MG, U87-MG^shp53 and U-251 was tested by plating triplicates of 300 cells/dish in 6 wells dishes. After 2-3 weeks, cells were stained with crystal violet and the number of clones was quantified. Overall effect was calculated by multiplying the percentage of surviving cells at the end of treatment with the percentage of colonies formed vs. control.

U87-MG^shp53 = assay: Cytotoxicity assay (cell count at end of treatment), U87-MG^shp53; assay type: cell-based, human; details: for cytotoxic effect, Observed TTFields + AZD1152 / cytotoxic effect, AZD1152: 72 h; for cytotoxic effect, Observed TTFields + AZD1152: percentage of control; for cytotoxic effect, Expected: expected value for the combination; for cytotoxic effect, AZD1152: number of cells as percentage of control
Description: as §1, §2, §3

U-251 = assay: Overall effect based on the clonogenic assay, U-251; assay type: cell-based, human; details: for overall effect, Observed TTFields + AZD1152 / overall effect, AZD1152: 72 h; for overall effect, Observed TTFields + AZD1152: clonogenic assay; for overall effect, Expected: expected value for the combination; for overall effect, AZD1152: based on the clonogenic assay
Description: as §1, §2, §3
The overall effect for U-251 cells was determined based on the clonogenic assay. Response to TTFields application alone led to about 50% reduction in the clonogenic potential of U-251 cells (FIG. 1E).

U87-MG [2] = assay: Flow cytometry analysis of DNA contents (ploidy), U87-MG; assay type: cell-based, human; details: 72 h
Description: For cell cycle analysis, cells were removed with Trypsin immediately after 72 h treatment, washed twice with ice-cold PBS with 1% FBS and fixed with 70% ice-cold ethanol for 30 min. After fixation, cells were washed twice with ice-cold PBS with 1% FBS, pelleted and incubated in PBS containing 10 μg/ml RNase and 7.5 μg/ml7-AAD (Sigma-Aldrich) at 37° C. for 30 min. Cell cycle distribution was then quantified using the EC800 flow cytometer (Sony Biotechnology, Japan).
FIGS. 3A-D and 4A-E show U87-MG and U87-MG^shp53 FACS analysis of DNA contents following treatment with TTFields and AZD1152. More specifically, FIGS. 3A-D depict increased polyploidy in U87-MG cells following the combined treatment of TTFields (200 kHz, 1.6 V/cm RMS) at various AZD1152 concentrations; and FIGS. 4A-E depict increased polyploidy in U87-MG^shp53 cells following the combined treatment of TTFields (200 kHz, 1.6 V/cm RMS) at various AZD1152 concentrations.
Tables 1 and 2 depict, for U87-MG and U87-MG^shp53 respectively, numeric data corresponding to FIGS. 3 and 4. The columns in tables 1 and 2 represent the DNA copy number (e.g., 2n is the normal number of chromosomes (23 pairs=46), 4n is twice the number of chromosomes, etc.).

[3] = patients with advanced solid tumors, cited from earlier work
[4] = AZD1152 25 nM + TTFIELDS 200 kHz 1.6 V/cm RMS
[5] = AZD1152 25 nM, CONTROL (no TTFields)
[6] = AZD1152 50 nM + TTFIELDS 200 kHz 1.6 V/cm RMS
[7] = AZD1152 50 nM, CONTROL (no TTFields)
[8] = AZD1152 100 nM + TTFIELDS 200 kHz 1.6 V/cm RMS
[9] = AZD1152 100 nM, CONTROL (no TTFields)

With CCN(CCCOc1ccc2c(Nc3cc(CC(=O)Nc4cccc(F)c4)n[nH]3)ncnc2c1)CCOP(=O)(O)O [AZD1152, Barasertib] the “cytotoxic effect, Observed TTFields + AZD1152” value (U87-MG [1]; AZD1152 25 nM + TTFields 200 kHz 1.6 V/cm RMS) was 13.5%, the “cytotoxic effect, Expected” value (U87-MG [1]; AZD1152 25 nM + TTFields) was 23.5% and the “cytotoxic effect, AZD1152” value (U87-MG [1]; AZD1152 25 nM alone) was 46%. For the same compound, the “cytotoxic effect, Observed TTFields + AZD1152” value (U87-MG [1]; AZD1152 50 nM + TTFields 200 kHz 1.6 V/cm RMS) was 8.5%, the “cytotoxic effect, Expected” value (U87-MG [1]; AZD1152 50 nM + TTFields) was 13.0% and the “cytotoxic effect, AZD1152” value (U87-MG [1]; AZD1152 50 nM alone) was 25.5%. The “cytotoxic effect, Observed TTFields + AZD1152” value (U87-MG [1]; AZD1152 100 nM + TTFields 200 kHz 1.6 V/cm RMS) was 4.0%, the “cytotoxic effect, Expected” value (U87-MG [1]; AZD1152 100 nM + TTFields) was 4.8% and the “cytotoxic effect, AZD1152” value (U87-MG [1]; AZD1152 100 nM alone) was 9.5%. The “cytotoxic effect of combined treatment of TTFields and AZD1152” value (U87-MG [1]; TTFields 200 kHz 1.6 V/cm RMS 72 hours, 2-way ANOVA, p<0.001) was “significant enhancement of the cytotoxic effect”, the IC50 (U87-MG^shp53; Homo sapiens, U87-MG^shp53, AZD1152 alone, 72 hours) was about 50 nM and the “cytotoxic effect, Observed TTFields + AZD1152” value (U87-MG^shp53; U87-MG^shp53, AZD1152 25 nM + TTFields 200 kHz 1.6 V/cm RMS) was 22.5%. The “cytotoxic effect, Expected” value (U87-MG^shp53; U87-MG^shp53, AZD1152 25 nM + TTFields) was 42.2%, the “cytotoxic effect, AZD1152” value (U87-MG^shp53; U87-MG^shp53, AZD1152 25 nM alone) was 71% and the “cytotoxic effect, Observed TTFields + AZD1152” value (U87-MG^shp53; U87-MG^shp53, AZD1152 50 nM + TTFields 200 kHz 1.6 V/cm RMS) was 10.5%. For the same compound, the “cytotoxic effect, Expected” value (U87-MG^shp53; U87-MG^shp53, AZD1152 50 nM + TTFields) was 27.7%, the “cytotoxic effect, AZD1152” value (U87-MG^shp53; U87-MG^shp53, AZD1152 50 nM alone) was 46.5% and the “cytotoxic effect, Observed TTFields + AZD1152” value (U87-MG^shp53; U87-MG^shp53, AZD1152 100 nM + TTFields 200 kHz 1.6 V/cm RMS) was 4.5%. The “cytotoxic effect, Expected” value (U87-MG^shp53; U87-MG^shp53, AZD1152 100 nM + TTFields) was 8.9%, the “cytotoxic effect, AZD1152” value (U87-MG^shp53; U87-MG^shp53, AZD1152 100 nM alone) was 15% and the “cytotoxic effect of combined treatment of TTFields and AZD1152” value (U87-MG^shp53; U87-MG^shp53, 2-way ANOVA, p<0.001) was “significant enhancement of the cytotoxic effect”. The “overall effect, Observed TTFields + AZD1152” value (U-251; U-251, AZD1152 6.25 nM + TTFields 200 kHz 1.6 V/cm RMS) was 8.0%, the “overall effect, Expected” value (U-251; U-251, AZD1152 6.25 nM + TTFields) was 40.7% and the “overall effect, AZD1152” value (U-251; U-251, AZD1152 6.25 nM alone) was 74%. For the same compound, the “overall effect, Observed TTFields + AZD1152” value (U-251; U-251, AZD1152 12.5 nM + TTFields 200 kHz 1.6 V/cm RMS) was 0.7%, the “overall effect, Expected” value (U-251; U-251, AZD1152 12.5 nM + TTFields) was 8.3% and the “overall effect, AZD1152” value (U-251; U-251, AZD1152 12.5 nM alone) was 15%. For the same compound, the “overall effect, Observed TTFields + AZD1152” value (U-251; U-251, AZD1152 25 nM + TTFields 200 kHz 1.6 V/cm RMS) was 0.2%, the “overall effect, Expected” value (U-251; U-251, AZD1152 25 nM + TTFields) was 1.1% and the “overall effect, AZD1152” value (U-251; U-251, AZD1152 25 nM alone) was 2%. For the same compound, the “overall effect, Observed TTFields + AZD1152” value (U-251; U-251, AZD1152 50 nM + TTFields 200 kHz 1.6 V/cm RMS) was 0.2%, the “overall effect, Expected” value (U-251; U-251, AZD1152 50 nM + TTFields) was 1.1% and the “overall effect, AZD1152” value (U-251; U-251, AZD1152 50 nM alone) was 2%. The “overall effect, Observed TTFields + AZD1152” value (U-251; U-251, AZD1152 100 nM + TTFields 200 kHz 1.6 V/cm RMS) was 0.2%, the “overall effect, Expected” value (U-251; U-251, AZD1152 100 nM + TTFields) was 0.8% and the “overall effect, AZD1152” value (U-251; U-251, AZD1152 100 nM alone) was 1.5%. The “DNA copy number 2n” value (U87-MG [2]; [4]) was 39%, the “DNA copy number 4n” value (U87-MG [2]; [4]) was 31% and the “DNA copy number 8n” value (U87-MG [2]; [4]) was 9%. The “DNA copy number 16n” value (U87-MG [2]; [4]) was 2%, the “DNA copy number 2n” value (U87-MG [2]; [5]) was 55% and the “DNA copy number 4n” value (U87-MG [2]; [5]) was 25%. The “DNA copy number 8n” value (U87-MG [2]; [5]) was 4%, the “DNA copy number 16n” value (U87-MG [2]; [5]) was 1% and the “DNA copy number 2n” value (U87-MG [2]; [6]) was 28%. The “DNA copy number 4n” value (U87-MG [2]; [6]) was 36%, the “DNA copy number 8n” value (U87-MG [2]; [6]) was 16% and the “DNA copy number 16n” value (U87-MG [2]; [6]) was 2%. For the same compound, the “DNA copy number 2n” value (U87-MG [2]; [7]) was 45%, the “DNA copy number 4n” value (U87-MG [2]; [7]) was 26% and the “DNA copy number 8n” value (U87-MG [2]; [7]) was 8%. For the same compound, the “DNA copy number 16n” value (U87-MG [2]; [7]) was 2%, the “DNA copy number 2n” value (U87-MG [2]; [8]) was 11% and the “DNA copy number 4n” value (U87-MG [2]; [8]) was 40%. For the same compound, the “DNA copy number 8n” value (U87-MG [2]; [8]) was 25%, the “DNA copy number 16n” value (U87-MG [2]; [8]) was 4% and the “DNA copy number 2n” value (U87-MG [2]; [9]) was 27%. For the same compound, the “DNA copy number 4n” value (U87-MG [2]; [9]) was 33%, the “DNA copy number 8n” value (U87-MG [2]; [9]) was 22% and the “DNA copy number 16n” value (U87-MG [2]; [9]) was 3%. The “maximum tolerated AZD1152 dose” value ([3]; administered as two 2-h infusions (110 mg/day, days 1, 2, 15 and 16)) was 220 mg and the “maximum tolerated AZD1152 dose” value ([3]; as a 48-h continuous infusion) was 150 mg.

Reference: patent US11298422B2, “Treating tumors with TTFields and an aurora kinase inhibitor” (Novocure Limited, priority 2018, dated 2022)
